Our source for the pA2 values is ChEMBL document CHEMBL3272268 (J Med Chem, 1978).

A word on the pA2: it is the negative logarithm of the molar antagonist concentration that doubles the agonist concentration needed for the same response.

This assay concerns the target Serotonin (5-HT) receptor. The assay is described as follows: Competitive antagonist activity at 5-HT serotonin receptor in Sprague-Dawley rat stomach fundus model assessed as inhibition of 5-HT-induced contractile response.

On to `COc1ccc(OC)c(CCCN(C)C)c1`, for which the pA2 stood at 5.45.
